# US20090042857A1, “Novel Pharmaceutical” (priority 2006, published 2009)
# Structures can show the parent of a compound that is named as a salt.
# Target: T1, androgen receptor (Rattus norvegicus, UniProt P15207)
# T1 sequence (P15207 1-902): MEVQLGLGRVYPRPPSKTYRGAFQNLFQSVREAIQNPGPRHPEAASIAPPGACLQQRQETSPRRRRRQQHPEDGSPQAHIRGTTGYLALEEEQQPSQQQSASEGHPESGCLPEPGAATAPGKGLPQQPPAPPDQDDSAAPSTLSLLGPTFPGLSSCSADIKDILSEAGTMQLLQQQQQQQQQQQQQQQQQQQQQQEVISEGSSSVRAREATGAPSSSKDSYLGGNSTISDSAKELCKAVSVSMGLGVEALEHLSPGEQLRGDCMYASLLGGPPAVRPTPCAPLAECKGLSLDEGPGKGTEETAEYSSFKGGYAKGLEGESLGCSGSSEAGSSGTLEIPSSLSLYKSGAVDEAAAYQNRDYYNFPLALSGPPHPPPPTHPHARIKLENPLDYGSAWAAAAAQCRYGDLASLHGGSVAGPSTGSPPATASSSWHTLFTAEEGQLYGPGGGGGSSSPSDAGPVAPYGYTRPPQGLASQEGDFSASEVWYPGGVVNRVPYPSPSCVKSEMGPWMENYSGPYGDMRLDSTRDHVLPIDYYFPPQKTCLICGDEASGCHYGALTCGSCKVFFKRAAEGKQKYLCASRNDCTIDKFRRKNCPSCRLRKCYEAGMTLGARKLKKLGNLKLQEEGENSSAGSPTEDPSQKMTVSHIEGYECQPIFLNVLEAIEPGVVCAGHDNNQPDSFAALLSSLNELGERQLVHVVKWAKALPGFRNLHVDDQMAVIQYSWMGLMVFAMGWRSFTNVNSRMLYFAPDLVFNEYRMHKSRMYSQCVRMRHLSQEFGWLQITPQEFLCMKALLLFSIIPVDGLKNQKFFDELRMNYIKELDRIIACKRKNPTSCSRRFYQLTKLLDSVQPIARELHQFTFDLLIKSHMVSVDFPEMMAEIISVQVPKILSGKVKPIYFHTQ
# Assay: Measurement of organ selective androgen receptor regulating action (organ weights in castrated, testosterone propionate-supplemented rats)
# Format: in vivo, Sprague-Dawley male rat
# Design: from tissue; host or cells: Sprague-Dawley male rat, whole animal (levator ani muscle, prostate, vesicular gland)
# Conditions: testosterone propionate 0.5 mg/kg s.c. once a day, twice a day, 1 week
# Experimental: A 3-week-old Sprague-Dawley male rat was castrated, and testosterone•propionate (0.5 mg/kg) was administered subcutaneously once a day from the next day. Simultaneously, a test compound was dissolved in 10% ethanol/corn oil, and orally administered twice a day. The next day of a 1 week administration, the weights of the levator ani muscle, prostate and vesicular gland were measured. The dose of the test compound is indicated in a daily amount.
# As the test compounds, compound 114, compound 158, compound 117, compound 119 and compound of Reference Example 2 were used.
# [1] = test compound 4.143 mg/kg/day orally
# [2] = test compound 13.81 mg/kg/day orally
# [3] = test compound 3 mg/kg/day orally
# [4] = test compound 10 mg/kg/day orally
# [5] = test compound 0.4138 mg/kg/day orally
# [6] = test compound 1.379 mg/kg/day orally
compound,measurement,setting,value
"4-[(2S,3R)-3-hydroxy-2-methyl-1-pyrrolidinyl]-1-naphtonitrile methanesulfonate [compound 114]","levator ani muscle weight, relative % to control",[1],142.1%
same,"prostate weight, relative % to control",[1],90.6%
same,"levator ani muscle weight, relative % to control",[2],157.7%
same,"prostate weight, relative % to control",[2],99.1%
"C[C@H]1[C@@H](C(C)(C)O)CCN1c1ccc(C#N)c2sccc12 [Reference Example 2, 4-[(2S,3S)-3-(1-hydroxy-1-methylethyl)-2-methylpyrrolidin-1-yl]-1-benzothiophene-7-carbonitrile]","levator ani muscle weight, relative % to control",[3],108.0%
same,"prostate weight, relative % to control",[3],92.0%
same,"levator ani muscle weight, relative % to control",[4],120.1%
same,"prostate weight, relative % to control",[4],87.5%
"C[C@H]1[C@@H](O)CCN1c1ccc(C#N)c2sccc12 [compound 119, 4-[(2S,3S)-3-hydroxy-2-methyl-1-pyrrolidinyl]-1-benzothiophene-7-carbonitrile sulfate]","levator ani muscle weight, relative % to control",[5],131.5%
same,"prostate weight, relative % to control",[5],87.8%
same,"levator ani muscle weight, relative % to control",[6],151.8%
same,"prostate weight, relative % to control",[6],91.4%
